# Source: EP0103895A2, “Novel hydroxylamine derivatives, production and use thereof” (MEIJI SEIKA KABUSHIKI KAISHA, priority 1982, dated 1984)
# Where “and” joins values, the source holds several entries; their conditions need not be identical. Equal values may be shown once. Read-outs that look alike come from different tables or passages of the source.
# Columns and labels:
# [1] = system: Liver fluke; Fasciola hepatica (F. hepatica); assay: Test of anthelmintic effect against rat infected experimentally with liver fluke (Test Examples A11, B11, C11, D11); type: in vivo; design: key to Presence or absence of fluke egg in fecal matter On 21st day after the last administration: +: indicates detection of fluke egg; -: indicates no detection
# [2] = system: Diphyllobothrium erinacei; assay: Test of anthelmintic effect against Diphyllobothrium erinacei (tapeworm) in experimentally infected cats (Test Examples A5, B5, C5, D5)
# [3] = system: canine strongyloides (Strongyloides stercoralis); assay: Anthelmintic test against canine strongyloides in naturally infected dogs, E.P.G. on 7th day (Test Examples A4, B4, C4, D4); type: in vivo; conditions: dogs, 10 mg/Kg orally once, one value per dog
# Method: Three dogs infected with canine strongyloides (naturally infected dogs) were employed by grouping them into a group of two and a group of one.
# As control, only a gelatin capsule was administered orally to the one dog.
# (§1) Before administration and on the 7th day after administration, fecal matter testing was conducted to calculate the E.P.G., and the anthelmintic effect was judged by the changing of the E.P.G. to negative.
# (§2) As control, only gelatin capsules were administered orally to the one dog.
# as §2
# [4] = system: swine Oesophagostomum (Oesophagostomum dentatum); assay: Test of anthelmintic effect against swine Oesophagostomum in naturally infected pigs, E.P.G. on 7th day (Test Examples A8, B8, C8, D8); type: in vivo; conditions: for anthelmintic effect: one administration of 20 mg/Kg
# Method: Six pigs infected with swine Oesophagostomum (naturally infected pigs) were employed by grouping them into groups each of two pigs.
# (§3) As a control, only gelatin capsules were administered orally to the two pigs.
# as §1
# [5] = system: stomach worm (Haemonchus controtus); assay: Anthelmintic test against cow stomach worm in naturally infected cows, E.P.G. on 7th day (Test Examples A6, B6, C6, D6); type: in vivo; conditions: cows
# Method: Three cows infected with stomach worm (naturally infected cows) were employed by grouping them into a group of two and a group of one.
# (§4) As control, only gelatin capsules were administered orally to the one cow.
# as §1, §4, §4
# [6] = system: fowl roundworm (As. galli); assay: Anthelmintic test in chickens artificially infected with fowl roundworm, compound added to feed, E.P.G. and worm count up to 21st day (Test Examples A2, B2, C2, D2); type: in vivo, Ascaridia galli; conditions: for inhibition in vivo at 10 ppm: 10 ppm added to feed
# [7] = system: canine filaria; Dirofilaria immitis; assay: Test of anthelmintic effect against canine filaria in naturally infected dogs, subcutaneous injection, microfilaria in blood and adult filaria at autopsy (Test Examples A10, B10, C10, D10); type: in vivo; conditions: for inhibition in vivo at 20 mg/kg: Dirofilaria immitis, sc, 240 h
# Method: Eight dogs infected with canine filaria; Diro- filaria immitis (naturally infected dogs) were employed in groups each of two dogs.
# The compounds provided for tests were Compound Nos. Al, A3 and A12. 20 mg of each was administered by subcutaneous injection per Kg of body weight to each of the two dogs as a suspension in 1% "Tween 80" solution once per day for three days. As control, 3 ml of the 1% "Tween 80" solution was subcutaneously injected into two dogs once per day for three days.
# Before administration and on the 10th day after administration, 20 µl of earlobe blood of each dog was sampled and examined to determine the change in microfilaria (mf) according to the concentrated smear color method, and judgement on the effect on microfilaria (mf) was made. Judgement relating to adult filaria was made on the 10th day after the last administration by killing the dogs and carrying out autopsis.
# 30 mg of each compound was administered by subcutaneous injection per Kg of body weight to each of the two dogs as a suspension in 1% "Tween 80" solution once per day for three days. As control, 3 ml of the 1% "Tween 80" solution was subcutaneously injected into two dogs once per day for three days.
# 30 mg of each compound was administered by subcutaneous injection per Kg of body weight to each of two dogs as a suspension in 1% "Tween 80" solution once per day for three days. As control, 3 ml of the 1% "Tween 80" solution was subcutaneously injected to two dogs once per day for three days.
# 20 mg of each compound was administered by subcutaneous injection per kg of body weight once per day for three days to each of two dogs. These compounds were administered as a suspension in 1% "Tween 80" in the case of Compound No.Dl3 and as solutions dissolved in distilled water for injection in the case of Compounds Nos. D10 and D16, respectively. As control, 3 ml of the 1% "Tween 80" solution was subcutaneously injected into two dogs once per day for three days.
# [8] = system: swine whipworm (Trichuris suis); assay: Test of anthelmintic effect in naturally infected pigs, E.P.G. on 7th day: swine whipworm (Test Examples A9, B9, C9, D9); type: in vivo
# Method: (§5) Six pigs infected with swine roundworm and swine whipworm (naturally infected pigs) were employed in groups each of two pigs.
# as §3
# (§6) Before administration and on the 7th day after. administration, fecal matter testing was conducted to calculate the E.P.G., and the anthelmintic effect was judged by the changing of the E.P.G. to negative'.
# (§7) 50 mg of each compound was placed in a gelatin capsule per 1 Kg of body weight and administered orally to each of the two pigs. As control, only gelatin capsules were administered orally to two pigs.
# (§8) 30 mg of each compound was placed in a gelatin capsule per 1 Kg of body weight and administered orally to each of the two pigs. As control, only gelatin capsules were administered orally to two pigs.
# [9] = system: swine roundworm (Ascaris suum); assay: Test of anthelmintic effect in naturally infected pigs, E.P.G. on 7th day: swine roundworm (Test Examples A9, B9, C9, D9); type: in vivo; conditions: for anthelmintic effect: pigs infected with swine roundworm and swine whipworm (statement covers both)
# Method: as §5, §3, §6, §7, §8
# [10] = system: fowl roundworm (Ascaridia galli); assay: Anthelmintic test in chickens artificially infected with fowl roundworm, single oral dose in gelatin capsule, worm bodies counted within 48 hours (Test Examples A1, B1, C1, D1); type: in vivo; conditions: Ascaridia galli, po, 48 h, read-out: Anthelmintic effect after 48 hours
# Summary of the method: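 Anthelmintic percentage derived from counts of worms passed within 48 h plus worms left in the intestine after killing at 48 h. Infection confirmed by fecal examination in three-bird groups; compound given orally once in gelatin capsules at 10/20 (A1, B1), 30/50 (C1) or 15/30 (D1) mg/kg.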
# [11] = rats, 50 mg/Kg x 5 orally, autopsy, liver, "Denatured" = fluke body is alive but a part of fluke body has changed, one value per rat
# [12] = rats, 50 mg/Kg x 5 orally, one value per rat
# [13] = pigs, 20 mg/Kg orally once, one value per pig
# [14] = Ascaridia galli, po, 504 h, chickens, worm count on 21st day, one value per chicken, read-out: Anthelmintic effect
# [15] = Ascaridia galli, po, 504 h, chickens, 50 ppm added to feed, worm count on 21st day, one value per chicken, read-out: Anthelmintic effect
# [16] = dogs, administration of 20 mg/Kg repeated three times, given as about 50% or more, read-out: anthelmintic effect against adult filaria
# [17] = dogs, 20 mg/Kg x 3 subcutaneously, autopsy on 10th day after the last administration, one value per dog, 20 mg/kg
# [18] = dogs, administration of 20 mg/Kg repeated three times
# [19] = chicken, 30 mg/Kg oral in gelatin capsule, chickens No.1-3
# [20] = chicken, 50 mg/Kg oral in gelatin capsule, chickens No.1-3
# [21] = pig, 30 mg/Kg oral in gelatin capsule, one administration
# [22] = pig, Ascaris suum, 30 mg/Kg oral in gelatin capsule, one administration
# [23] = Ascaridia galli, feed or water, 504 h, chicken, 25 ppm in feed, read-out: Anthelmintic effect
# [24] = Ascaridia galli, feed or water, 504 h, chicken, 50 ppm in feed, read-out: Anthelmintic effect
smiles,measurement,setting,value
"C#CCN(OCC=C)C(C)=O [Compound A3, N-propargyl-N-acetyl-O-allylhydroxylamine]",Condition of fluke body,[1]; [11],dead
same,Presence or absence of fluke egg in fecal matter On 21st day after the last administration,[1]; [12],-
same,Number of worm bodies remaining in enteron,"[2]; cats infected with 5 plerocercoids, 50 mg/Kg x 5 times orally, autopsy ten days after administration, one value per cat",0
same,Worm egg detection on 10th day after administration,"[2]; cats, 50 mg/Kg x 5 times orally, one value per cat (Table A7)",-
same,anthelmintic effect,"[2]; cats, 5 continuous administrations of 50 mg/Kg",marked anthelmintic effects
same,Change of E.P.G. Before administration,"[3]; baseline, 10 mg/kg","1,900 E.P.G. and 2,700 E.P.G."
same,Change of E.P.G. 7th day,[3],0 E.P.G.
same,Change of E.P.G. Before administration,"[4]; pigs, 20 mg/Kg orally once, baseline, one value per pig, 20 mg/kg","1,600 E.P.G. and 1,000 E.P.G."
same,Change of E.P.G. 7th day,[4]; [13],0 E.P.G.
same,anthelmintic effect,[4]; pigs,marked anthelmintic effect
same,Change of E.P.G. Before administration,"[5]; 15 mg/Kg orally once, baseline, one value per cow, 15 mg/kg","1,700 E.P.G. and 1,500 E.P.G."
same,Change of E.P.G. 7th day,"[5]; 15 mg/Kg orally once, one value per cow",0 E.P.G.
same,anthelmintic effect,[5]; one administration of 15 mg/Kg,marked anthelmintic effect
same,inhibition in vivo at 10 ppm,[6]; [14],100%
same,inhibition in vivo at 50 ppm,[6]; [15],100%
same,inhibition in vivo at 20 mg/kg,[7]; [16],≥ 50%
same,Effect on adult filaria: Number of worms killed/Total parasites,[7]; [17],13/18 and 4/ 8
same,Effect on adult filaria: Percent of worms killed,[7]; [17],72% and 50%
same,Number of microfilaria/20 µl On 10th day after the last administration,"[7]; dogs, 20 mg/Kg x 3 subcutaneously, earlobe blood, one value per dog",0 /20 µl
same,anthelmintic effect against microfilaria (mf),[7]; [18],marked anthelmintic effect
"C#CCN(OCCCC)C(=O)c1ccccc1 [Compound A10, N-propargyl-N-benzoyl-O-butylhydroxylamine]",Change of E.P.G. 7th day,[8]; [13],0 E.P.G.
same,anthelmintic effect,[9]; one administration of 20 mg/Kg,marked anthelmintic effect
same,Change of E.P.G. 7th day,"[9]; pigs, 20 mg/Kg orally once, Ascaris suum, one value per pig",0 E.P.G.
same,Condition of fluke body,[1]; [11],dead
same,Presence or absence of fluke egg in fecal matter On 21st day after the last administration,[1]; [12],-
same,inhibition in vivo at 10 ppm,[6]; [14],80 to 90%
same,inhibition in vivo at 50 ppm,[6]; [15],100%
"C=CCN(OC)C(=O)c1ccccc1 [Compound B5, N-allyl-N-benzoyl-O-methylhydroxylamine]",inhibition in vivo at 30 mg/kg,"[10]; chickens, 30 mg/Kg orally in gelatin capsule, one value per chicken (No.1-3)",100%
same,inhibition in vivo at 50 mg/kg,"[10]; chickens, 50 mg/Kg orally in gelatin capsule, one value per chicken (No.1-3)",100%
same,Change of E.P.G. Before administration,"[8]; pigs, 50 mg/Kg orally once, baseline, one value per pig, 50 mg/kg","2,100 E.P.G. and 1,300 E.P.G."
same,Change of E.P.G. 7th day,"[8]; pigs, 50 mg/Kg orally once, one value per pig",0 E.P.G.
same,anthelmintic effect,[9]; one administration of 50 mg/Kg,marked anthelmintic effect
same,Change of E.P.G. 7th day,"[9]; pigs, 50 mg/Kg orally once, Ascaris suum, one value per pig",0 E.P.G.
same,inhibition in vivo at 20 ppm,"[6]; Ascaridia galli, po, 504 h, chickens, 20 ppm added to feed, worm count on 21st day, one value per chicken, read-out: Anthelmintic effect",80 to 90%
same,inhibition in vivo at 50 ppm,[6]; [15],100%
C=CCON(CC=C)C(=O)CCC [Compound C3],inhibition in vivo at 30 mg/kg,[10]; [19],80 to 90%
same,inhibition in vivo at 50 mg/kg,[10]; [20],100%
same,Change of E.P.G. 7th day,[8]; [21],0
same,Change of E.P.G. 7th day,[9]; [22],0
same,Change of E.P.G. Before administration,"[9]; pig, Ascaris suum, before 30 mg/Kg oral (baseline)","1,300 and 2,100"
same,anthelmintic effect,[9]; one administration of 30 mg/Kg,marked anthelmintic effect
same,inhibition in vivo at 25 ppm,[6]; [23],80 to 90%
same,inhibition in vivo at 50 ppm,[6]; [24],100%
C=CCON(CC=C)C(=O)c1ccccc1 [Compound C6],inhibition in vivo at 30 mg/kg,[10]; [19],100%
same,inhibition in vivo at 50 mg/kg,[10]; [20],100%
same,Change of E.P.G. 7th day,[8]; [21],0
same,Change of E.P.G. Before administration,"[8]; pig, before 30 mg/Kg oral (baseline)","4,300 and 5,800"
same,Change of E.P.G. 7th day,[9]; [22],0
same,anthelmintic effect,[9]; one administration of 30 mg/Kg,marked anthelmintic effect
same,Condition of fluke body,"[1]; rat, 50 mg/Kg x 5",dead
same,Presence or absence of fluke egg in fecal matter On 21st day after the last administration,"[1]; rat, 50 mg/Kg x 5",-
same,anthelmintic effect,"[1]; rats, five administrations in a dose of 50 mg/Kg each",marked antihelmintic effect
same,Change of E.P.G. 7th day,"[4]; pig, Oesophagostomum dentatum, 20 mg/Kg, one administration",0
same,anthelmintic effect,[4]; pigs,marked anthelmintic effect
same,inhibition in vivo at 25 ppm,[6]; [23],100%
same,inhibition in vivo at 50 ppm,[6]; [24],100%
same,Change of E.P.G. 21st day,"[6]; chicken, 25 ppm in feed",0
same,Change of E.P.G. 21st day,"[6]; chicken, 50 ppm in feed",0
"C#CCNOCC.Cl [Compound D10, N-propargyl-O-ethylhydroxylamine hydrochloride]",inhibition in vivo at 15 mg/kg,"[10]; chicken, 15 mg/Kg oral in gelatin capsule, chickens No.1-3",100%
same,inhibition in vivo at 30 mg/kg,[10]; [19],100%
same,Change of E.P.G. 7th day,"[8]; pig, 20 mg/Kg, one administration",0
same,Change of E.P.G. 7th day,"[9]; pig, Ascaris suum, 20 mg/Kg, one administration",0
same,inhibition in vivo at 20 mg/kg,"[7]; dog, 20 mg/Kg x 3, subcutaneous injection, read-out: Effect on adult filaria: Percent of worms killed",54%
same,inhibition in vivo at 20 mg/kg,[7]; [16],≥ 50%
same,Number of microfilaria/20µl On 10th day after the administration,"[7]; dog, 20 mg/Kg x 3, subcutaneous injection",0 /20µl
same,Effect on adult filaria: Number of worms killed/ Total parasite,"[7]; dog, 20 mg/Kg x 3, subcutaneous injection, hydrochloride, 20 mg/kg",18/33 and 20/28
same,anthelmintic effect against microfilaria (mf),[7]; [18],marked anthelmintic effect
